One molecule from patent US20140120060A1, “TREATMENT OF RHEUMATOID ARTHRITIS AND ASTHMA USING PI3 KINASE INHIBITORS” (INFINITY PHARMACEUTICALS, INC., priority 2012, published 2014) can be followed below.

The target of data set [1] is T1, human P-glycoprotein (Homo sapiens, UniProt P08183).
T1 construct: endogenous in cells; host or cells: Caco-2 cell monolayers
In words: Interaction with human P-glycoprotein in Caco-2 cell monolayers. It counts as in vitro ADME.

The test system of data set [2] is B cell. As to the kind of experiment: B cell proliferation. It counts as cell-based.
Data set [3] deals with central nervous system. As to the kind of experiment: Neurofunctional study (FOB, motor activity) in Sprague-Dawley rat. The conditions noted are these: male rats.
Data set [4] relates to PG-PS model of arthritis. As to the kind of experiment: Rat mono-articular PG-PS model. It counts as in vivo. As to the method: Animals are initially randomized into groups based on body weight but any with no ankle swelling following priming are eliminated from the groups to be reactivated. 10/group are retained into the primary treatment groups. The remaining animals are the baseline controls (Group 1).
Rats that have ankle inflammation are allowed to recover for two weeks, and then the swelling is reactivated (day 0) by a tail vein injection of 0.5 ml of 0.4 mg/ml PG-PS. Treatment with the test compounds is given QD the day prior to reactivation on day 0 and then daily.
Animals have caliper measures and paw volumes taken of ankles on day −3 (prior to reactivation on day 0 in the AM) and then on days 1, 2, 3, 4 (2 hrs post-dose) to determine if any anti-inflammatory effects are present in treated rats.
Scoring of Joints: PGPS ankles or knees are given scores of 0-5 for inflammation and bone resorption according to the following criteria: […]

T1 sequence (P08183 whole entry): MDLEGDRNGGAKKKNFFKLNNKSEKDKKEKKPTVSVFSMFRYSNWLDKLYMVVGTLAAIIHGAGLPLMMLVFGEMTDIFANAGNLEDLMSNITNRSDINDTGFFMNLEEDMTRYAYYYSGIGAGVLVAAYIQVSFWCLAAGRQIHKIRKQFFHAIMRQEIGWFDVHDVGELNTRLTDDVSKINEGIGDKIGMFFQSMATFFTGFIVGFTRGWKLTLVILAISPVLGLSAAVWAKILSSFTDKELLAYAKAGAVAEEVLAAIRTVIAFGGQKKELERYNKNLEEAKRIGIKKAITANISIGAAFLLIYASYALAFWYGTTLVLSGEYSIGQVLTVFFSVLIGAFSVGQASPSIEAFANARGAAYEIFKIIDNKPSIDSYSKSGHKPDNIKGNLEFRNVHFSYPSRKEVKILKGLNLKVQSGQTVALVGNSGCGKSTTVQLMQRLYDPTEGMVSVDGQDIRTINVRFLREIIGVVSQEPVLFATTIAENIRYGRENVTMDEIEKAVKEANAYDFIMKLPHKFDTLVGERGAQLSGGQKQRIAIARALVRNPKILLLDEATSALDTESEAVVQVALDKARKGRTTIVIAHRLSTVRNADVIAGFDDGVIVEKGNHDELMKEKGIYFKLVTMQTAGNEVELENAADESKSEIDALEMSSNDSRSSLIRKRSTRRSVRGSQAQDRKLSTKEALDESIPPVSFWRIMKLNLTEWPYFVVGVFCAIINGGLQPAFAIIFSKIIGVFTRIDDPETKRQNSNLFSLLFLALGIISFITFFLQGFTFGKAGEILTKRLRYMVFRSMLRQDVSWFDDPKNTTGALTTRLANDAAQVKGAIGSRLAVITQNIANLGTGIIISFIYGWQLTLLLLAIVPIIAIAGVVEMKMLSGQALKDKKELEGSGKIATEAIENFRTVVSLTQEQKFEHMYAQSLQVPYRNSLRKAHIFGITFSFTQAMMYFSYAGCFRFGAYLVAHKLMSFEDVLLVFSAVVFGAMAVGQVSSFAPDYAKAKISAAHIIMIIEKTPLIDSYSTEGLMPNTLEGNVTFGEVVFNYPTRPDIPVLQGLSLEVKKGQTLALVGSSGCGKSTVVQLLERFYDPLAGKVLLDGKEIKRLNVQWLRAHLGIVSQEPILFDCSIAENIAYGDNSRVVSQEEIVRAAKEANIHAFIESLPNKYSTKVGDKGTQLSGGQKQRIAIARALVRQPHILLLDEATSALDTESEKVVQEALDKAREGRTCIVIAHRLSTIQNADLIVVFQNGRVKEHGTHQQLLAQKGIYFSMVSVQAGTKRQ

As for `C[C@H](Nc1ncnc2[nH]cnc12)c1cc2cccc(Cl)c2c(=O)n1-c1ccccc1` [Compound 292], in data set [1], the P-gp substrate status entry is on record as “is a P-gp substrate” and the “inhibition of active transport of other P-gp substrates” value is recorded as “has the potential to inhibit the active transport of other P-gp substrates”. In addition, in data set [2], the EC50 (commonly the concentration at which the effect is half-maximal) is below 0.1 µM. The locomotor activity result in data set [3] (2 h after a 350 mg/kg dose) was “Significant decreases”. The “effects on the central nervous system” value in data set [3] (dose levels ≦50 mg/kg) was “No effects”. Also, the “qualitative or quantitative FOB parameters” value in data set [3] (single oral dose up to 350 mg/kg, up to 24 h post-dose) is “no changes”. Further, in data set [4] (FIG. 14A), the “inflammation when reactivated with PG-PS” value is on record as “dose-dependently controlled inflammation”. In data set [4] (FIG. 14B), the “joint pathology in PG-PS model” value is on record as “dose-dependently improved joint pathology”.
